Reference: US6355799B1, “Substituted benzene compounds, process for their preparation, and herbicidal and defoliant compositions containing them” (ISK Americas Incorporated, priority 1997, dated 2002)

Key:
Type in all cases: in vivo
[1] = system: field corn (Zea mays L., var. Dekalb 535, CORN); assay: Post-emerge test, crop safety; settings: post-emerge, 14 days after application, rating scale 0-100
In short: (§1)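 Rating: 0–100 visual injury, 14 DAA. Application: acetone, 187 l/ha, 15–1000 g ai/ha, flat-fan track sprayer with nozzle 40–45 cm above soil or canopy. Post-emerge runs used 0.25% v/v surfactant on 2–3 leaf plants.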

[2] = system: upland rice (Oryza sp., var. Tebonnet, RICE); assay: Post-emerge test, crop safety; settings: post-emerge, 14 days after application, rating scale 0-100
In short: as §1

[3] = system: common ragweed (Ambrosia artemisizfolia L., AMBEL); assay: Pre-emerge test, greenhouse herbicide activity screening; settings: for Pre-emerge Herbicidal Activity AMBEL: phytotoxicity rating 0-100, 14 days after application; for phytotoxicity rating AMBEL: pre-emerge, 14 days after application, scale 0-100
In short: (§2)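 Compounds in acetone were track-sprayed at 15–1000 g ai/ha: pre-emergence onto soil sown the previous day, then top-watered to incorporate and later bottom-watered; post-emergence onto 2–3 leaf plants with 0.25% v/v surfactant, bottom-watered only. Ratings on a 0–100 phytotoxicity scale were taken at day 14.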

[4] = system: lambsquarters (Chenopodium album, CHEAL); assay: as above; settings: for Pre-emerge Herbicidal Activity CHEAL: phytotoxicity rating 0-100, 14 days after application; for phytotoxicity rating CHEAL: pre-emerge, 14 days after application, scale 0-100
In short: as §2

[5] = system: johnsongrass (Sorghum halepense, SORHA); assay: as above; settings: for Pre-emerge Herbicidal Activity SORHA: phytotoxicity rating 0-100, 14 days after application; for phytotoxicity rating SORHA: pre-emerge, 14 days after application, scale 0-100
In short: as §2

[6] = system: sicklepod (Cassia obtusifolia, CASOB); assay: as above; settings: for Pre-emerge Herbicidal Activity CASOB: phytotoxicity rating 0-100, 14 days after application; for phytotoxicity rating CASOB: pre-emerge, 14 days after application, scale 0-100
In short: as §2

[7] = system: green foxtail (Setaria viridis, SETVI); assay: as above; settings: for Pre-emerge Herbicidal Activity SETVI: phytotoxicity rating 0-100, 14 days after application; for phytotoxicity rating SETVI: pre-emerge, 14 days after application, scale 0-100
In short: as §2

[8] = system: large crabgrass (Digitaria sanguinalis, DIGSA); assay: as above; settings: for Pre-emerge Herbicidal Activity DIGSA: phytotoxicity rating 0-100, 14 days after application; for phytotoxicity rating DIGSA: pre-emerge, 14 days after application, scale 0-100
In short: as §2

[9] = system: velvetleaf (Abutilon theophrasti, ABUTH); assay: as above; settings: for Pre-emerge Herbicidal Activity ABUTH: phytotoxicity rating 0-100, 14 days after application; for phytotoxicity rating ABUTH: pre-emerge, 14 days after application, scale 0-100
In short: as §2

[10] = system: barnyardgrass (Echinochloa crus-galli, ECHCG); assay: as above; settings: for Pre-emerge Herbicidal Activity ECHCG: phytotoxicity rating 0-100, 14 days after application; for phytotoxicity rating ECHCG: pre-emerge, 14 days after application, scale 0-100
In short: as §2

[11] = system: ivyleaf morningglory (Ipomoea hederacea, IPOHE); assay: as above; settings: for Pre-emerge Herbicidal Activity IPOHE: phytotoxicity rating 0-100, 14 days after application; for phytotoxicity rating IPOHE: pre-emerge, 14 days after application, scale 0-100
In short: as §2

[12] = system: field corn (Zea mays L., var. Dekalb 535, CORN); assay: Pre-emerge test, crop safety; settings: for Pre-emerge Herbicidal Activity CORN: crop damage rating 0-100, 14 days after application; for phytotoxicity rating CORN (crop damage): pre-emerge, 14 days after application, scale 0-100
In short: (§3)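 Compounds in acetone were track-sprayed at 15-1000 g ai/ha (187 l/ha) on sandy loam pots: pre-emerge one day after seeding, post-emerge at 2-3 leaf stage with 0.25% v/v non-ionic surfactant. Phytotoxicity was rated 14 days later on a 0 (no damage) to 100 (complete death) scale.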

[13] = system: upland rice (Oryza sp., var. Tebonnet, RICE); assay: Pre-emerge test, crop safety; settings: for Pre-emerge Herbicidal Activity RICE: crop damage rating 0-100, 14 days after application; for phytotoxicity rating RICE (crop damage): pre-emerge, 14 days after application, scale 0-100
In short: as §3

[14] = system: lambsquarters (Chenopodium album, CHEAL); assay: Post-emerge test, greenhouse herbicide activity screening; settings: post-emerge, 14 days after application, rating scale 0-100
In short: as §1

[15] = system: redroot pigweed (Amaranthus retroflexus, AMARE); assay: as above; settings: post-emerge, 14 days after application
In short: as §1

[16] = system: johnsongrass (Sorghum halepense, SORHA); assay: as above; settings: post-emerge, 14 days after application, rating scale 0-100
In short: as §1

[17] = system: sicklepod (Cassia obtusifolia, CASOB); assay: as above; settings: post-emerge, 14 days after application, rating scale 0-100
In short: as §1

[18] = system: green foxtail (Setaria viridis, SETVI); assay: as above; settings: post-emerge, 14 days after application, rating scale 0-100
In short: as §1

[19] = system: large crabgrass (Digitaria sanguinalis, DIGSA); assay: as above; settings: post-emerge, 14 days after application, rating scale 0-100
In short: as §1

[20] = system: velvetleaf (Abutilon theophrasti, ABUTH); assay: as above; settings: post-emerge, 14 days after application, rating scale 0-100
In short: as §1

[21] = system: barnyardgrass (Echinochloa crus-galli, ECHCG); assay: as above; settings: post-emerge, 14 days after application, rating scale 0-100
In short: as §1

[22] = system: ivyleaf morningglory (Ipomoea hederacea, IPOHE); assay: as above; settings: post-emerge, 14 days after application, rating scale 0-100
In short: as §1

[23] = system: redroot pigweed (Amaranthus retroflexus, AMARE); assay: Pre-emerge test, greenhouse herbicide activity screening; settings: for Pre-emerge Herbicidal Activity AMARE: phytotoxicity rating 0-100, 14 days after application; for phytotoxicity rating AMARE: pre-emerge, 14 days after application, scale 0-100
In short: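 Herbicidal damage is scored 0 (none) to 100 (complete plant death) two weeks after a simulated field spray. Rates span 15–1000 g ai/ha, delivered in acetone at 187 l/ha. For post-emergence treatments, plants have 2–3 leaves and the spray carries 0.25% v/v non-ionic surfactant.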

[24] = 250 g ai/ha, rating scale 0-100

## Cc1ccc(-n2c(=O)cc(C(F)(F)F)n(C)c2=O)c(NC(=O)c2ccc3ccccc3c2)c1 [2-201]
[1]; 63 g ai/ha
  phytotoxicity rating CORN (crop damage): 30
[1]; 250 g ai/ha
  phytotoxicity rating CORN (crop damage): 35
[2]; 63 g ai/ha
  phytotoxicity rating RICE (crop damage): 60
[2]; 250 g ai/ha
  phytotoxicity rating RICE (crop damage): 65
[3]; 63 g ai/ha
  Pre-emerge Herbicidal Activity AMBEL: 30
[3]; 250 g ai/ha
  Pre-emerge Herbicidal Activity AMBEL: 80
[4]; 63 g ai/ha
  Pre-emerge Herbicidal Activity CHEAL: 98
[4]; 250 g ai/ha
  Pre-emerge Herbicidal Activity CHEAL: 100
[5]; 63 g ai/ha
  Pre-emerge Herbicidal Activity SORHA: 0
[5]; 250 g ai/ha
  Pre-emerge Herbicidal Activity SORHA: 30
[6]; 63 g ai/ha
  Pre-emerge Herbicidal Activity CASOB: 0
[6]; 250 g ai/ha
  Pre-emerge Herbicidal Activity CASOB: 0
[7]; 63 g ai/ha
  Pre-emerge Herbicidal Activity SETVI: 0
[7]; 250 g ai/ha
  Pre-emerge Herbicidal Activity SETVI: 75
[8]; 63 g ai/ha
  Pre-emerge Herbicidal Activity DIGSA: 45
[8]; 250 g ai/ha
  Pre-emerge Herbicidal Activity DIGSA: 95
[9]; 63 g ai/ha
  Pre-emerge Herbicidal Activity ABUTH: 98
[9]; 250 g ai/ha
  Pre-emerge Herbicidal Activity ABUTH: 100
[10]; 63 g ai/ha
  Pre-emerge Herbicidal Activity ECHCG: 15
[10]; 250 g ai/ha
  Pre-emerge Herbicidal Activity ECHCG: 75
[11]; 63 g ai/ha
  Pre-emerge Herbicidal Activity IPOHE: 55
[11]; 250 g ai/ha
  Pre-emerge Herbicidal Activity IPOHE: 80
[12]; 63 g ai/ha
  Pre-emerge Herbicidal Activity CORN: 0
[12]; 250 g ai/ha
  Pre-emerge Herbicidal Activity CORN: 0
[13]; 63 g ai/ha
  Pre-emerge Herbicidal Activity RICE: 0
[13]; 250 g ai/ha
  Pre-emerge Herbicidal Activity RICE: 30
[14]; 63 g ai/ha
  phytotoxicity rating CHEAL: 95
[14]; 250 g ai/ha
  phytotoxicity rating CHEAL: 98
[15]; 63 g ai/ha, rating scale 0-100 (0 no damage, 100 complete death)
  phytotoxicity rating AMARE: 99
[15]; [24]
  phytotoxicity rating AMARE: 100
[16]; 63 g ai/ha
  phytotoxicity rating SORHA: 0
[16]; 250 g ai/ha
  phytotoxicity rating SORHA: 0
[17]; 63 g ai/ha
  phytotoxicity rating CASOB: 60
[17]; 250 g ai/ha
  phytotoxicity rating CASOB: 85
[18]; 63 g ai/ha
  phytotoxicity rating SETVI: 20
[18]; 250 g ai/ha
  phytotoxicity rating SETVI: 30
[19]; 63 g ai/ha
  phytotoxicity rating DIGSA: 35
[19]; 250 g ai/ha
  phytotoxicity rating DIGSA: 45
[20]; 63 g ai/ha
  phytotoxicity rating ABUTH: 95
[20]; 250 g ai/ha
  phytotoxicity rating ABUTH: 99
[21]; 63 g ai/ha
  phytotoxicity rating ECHCG: 50
[21]; 250 g ai/ha
  phytotoxicity rating ECHCG: 60
[22]; 63 g ai/ha
  phytotoxicity rating IPOHE: 95
[22]; 250 g ai/ha
  phytotoxicity rating IPOHE: 95
[23]; 63 g ai/ha
  Pre-emerge Herbicidal Activity AMARE: 95
[23]; 250 g ai/ha
  Pre-emerge Herbicidal Activity AMARE: 95

## Cc1c(Cl)cc(F)c(-n2c(=O)cc(C(F)(F)F)n(C)c2=O)c1NC(=O)C=Cc1ccccc1 [2-123]
[1]; 63 g ai/ha
  phytotoxicity rating CORN: 35
[1]; 250 g ai/ha
  phytotoxicity rating CORN: 40
[2]; 63 g ai/ha
  phytotoxicity rating RICE: 60
[2]; 250 g ai/ha
  phytotoxicity rating RICE: 70
[3]; 63 g ai/ha
  phytotoxicity rating AMBEL: 95
[3]; 250 g ai/ha
  phytotoxicity rating AMBEL: 100
[4]; 63 g ai/ha
  phytotoxicity rating CHEAL: 100
[4]; 250 g ai/ha
  phytotoxicity rating CHEAL: 100
[5]; 63 g ai/ha
  phytotoxicity rating SORHA: 30
[5]; 250 g ai/ha
  phytotoxicity rating SORHA: 70
[6]; 63 g ai/ha
  phytotoxicity rating CASOB: 60
[6]; 250 g ai/ha
  phytotoxicity rating CASOB: 90
[7]; 63 g ai/ha
  phytotoxicity rating SETVI: 80
[7]; 250 g ai/ha
  phytotoxicity rating SETVI: 100
[8]; 63 g ai/ha
  phytotoxicity rating DIGSA: 60
[8]; 250 g ai/ha
  phytotoxicity rating DIGSA: 100
[9]; 63 g ai/ha
  phytotoxicity rating ABUTH: 100
[9]; 250 g ai/ha
  phytotoxicity rating ABUTH: 100
[10]; 63 g ai/ha
  phytotoxicity rating ECHCG: 40
[10]; 250 g ai/ha
  phytotoxicity rating ECHCG: 80
[11]; 63 g ai/ha
  phytotoxicity rating IPOHE: 100
[11]; 250 g ai/ha
  phytotoxicity rating IPOHE: 100
[12]; 63 g ai/ha
  phytotoxicity rating CORN (crop damage): 0
[12]; 250 g ai/ha
  phytotoxicity rating CORN (crop damage): 15
[13]; 63 g ai/ha
  phytotoxicity rating RICE (crop damage): 30
[13]; 250 g ai/ha
  phytotoxicity rating RICE (crop damage): 80
[14]; 63 g ai/ha
  phytotoxicity rating CHEAL: 100
[14]; 250 g ai/ha
  phytotoxicity rating CHEAL: 100
[15]; 63 g ai/ha, rating scale 0-100
  phytotoxicity rating AMARE: 100
[15]; [24]
  phytotoxicity rating AMARE: 100
[16]; 63 g ai/ha
  phytotoxicity rating SORHA: 10
[16]; 250 g ai/ha
  phytotoxicity rating SORHA: 30
[17]; 63 g ai/ha
  phytotoxicity rating CASOB: 100
[17]; 250 g ai/ha
  phytotoxicity rating CASOB: 100
[18]; 63 g ai/ha
  phytotoxicity rating SETVI: 20
[18]; 250 g ai/ha
  phytotoxicity rating SETVI: 30
[19]; 63 g ai/ha
  phytotoxicity rating DIGSA: 10
[19]; 250 g ai/ha
  phytotoxicity rating DIGSA: 30
[20]; 63 g ai/ha
  phytotoxicity rating ABUTH: 100
[20]; 250 g ai/ha
  phytotoxicity rating ABUTH: 100
[21]; 63 g ai/ha
  phytotoxicity rating ECHCG: 10
[21]; 250 g ai/ha
  phytotoxicity rating ECHCG: 20
[22]; 63 g ai/ha
  phytotoxicity rating IPOHE: 100
[22]; 250 g ai/ha
  phytotoxicity rating IPOHE: 100
[23]; 63 g ai/ha
  phytotoxicity rating AMARE: 100
[23]; 250 g ai/ha
  phytotoxicity rating AMARE: 100
